In patent US4351948A, “Imidazole hydrazone derivatives” (priority 1980, dated 1982):
Read-outs that look alike come from different tables or passages of the source.

What was measured:
C. albicans [1] = experiment: Vaginal candida infection in rats, oral or topical treatment; assay type: in vivo
Text: Effect of oral or topical administration of HC274 and ketoconazole on vaginal candida infection in rats. Clearance of C. albicans from rat vagina following oral or topical treatment (as percentage of control).
Topical treatment: 1% solution in polyethylene glycol administrated twice daily for 3 days.
Oral treatment: Once daily for 3 days.

candida albicans = experiment: Oral treatment: recovery of viable candida albicans from the kidneys of infected mice; assay type: in vivo
Text: Effect of oral treatment with HC274, HC316, HC390, HC415 and Ketoconazole on the recovery of viable candida albicans from the kidneys of infected mice.

[2] = tested on: Desulfovibrio desulfuricans API-CORE; experiment: Minimal inhibitory concentration against anaerobic bacteria; conditions: 24 h
[3] = tested on: Bacteroides uniformis ATCC 8492; experiment: as above; conditions: ATCC8492, 24 h
[4] = tested on: Desulfovibrio desulfuricans API-SW2; experiment: as above; conditions: for Minimal Inhibitory Concentration: 24 hours at 37° C.
Staphylococcus aureus = experiment: Anti-bacterial activity, zone diameter; assay type: cell-based; conditions: 50 μg, read-out: Zone diameter given by 50 μg of drug
Text: (§1) The anti-bacterial activity of the compound HC274 according to the present invention was also compared with the activity of known anti-bacterial agents with the following results: […]

Nocardia asteroides = experiment: Anti-bacterial activity, zone diameter; assay type: cell-based; conditions: 50 μg, read-out: Zone diameter given by 50 μg of drug
Text: as §1

Escherichia coli = experiment: Anti-bacterial activity, zone diameter; assay type: cell-based; conditions: 50 μg, read-out: Zone diameter given by 50 μg of drug
Text: as §1

Streptococcus pyrogenes = experiment: Anti-bacterial activity, zone diameter; assay type: cell-based; conditions: 50 μg; Streptococcus pyrogenes; read-out: Zone diameter given by 50 μg of drug
Text: as §1

pseudomonas aeruginosa = experiment: Anti-bacterial activity, zone diameter; assay type: cell-based; conditions: 50 μg; pseudomonas aeruginosa; read-out: Zone diameter given by 50 μg of drug
Text: as §1

Nocardia brasiliensis = experiment: Anti-bacterial activity, zone diameter; assay type: cell-based; conditions: 50 μg, read-out: Zone diameter given by 50 μg of drug
Text: as §1

Proteus vulgaris = experiment: Anti-bacterial activity, zone diameter; assay type: cell-based; conditions: 50 μg, read-out: Zone diameter given by 50 μg of drug
Text: as §1

Klebsiella pneumoniac = experiment: Anti-bacterial activity, zone diameter; assay type: cell-based; conditions: 50 μg; Klebsiella pneumoniac; read-out: Zone diameter given by 50 μg of drug
Text: as §1

[5] = tested on: Clostridium sporogenes ATCC 19404; experiment: Minimal inhibitory concentration against anaerobic bacteria; assay type: cell-based; conditions: ATCC19404, 24 h
C. albicans [6] = experiment: Recovery of viable candida cells from the kidneys of infected mice (p.o. and i.v. treatment); assay type: in vivo; conditions: 25 mg/kg 1 h and 24 h after infection
Method: Mice receive 25×10^4 cells of C. albicans i.v. Treatments (25 mg/kg) administered in PEG/Dextrose 1 h and 24 h after infection. Animals sacrified 48 h after infection and kidneys excised, weighed, homogenized and decimal dilutions spread on glucose-peptone agar.

[7] = tested on: Bacteroides fragilis ATCC 23745; experiment: Minimal inhibitory concentration against anaerobic bacteria; conditions: ATCC23745, 24 h
[8] = tested on: Trichophyton mentagrophytes; experiment: Experimental Trichophyton mentagrophytes infection in guinea pigs; assay type: in vivo
Text: Effect of oral or topical administration of HC274, HC344, Clotrimazole, and Ketoconazole on experimental Trichophyton mentagrophytes infection in guinea pigs.
*Based on degree of hair loss, erythema, desquamation, Max. = 100
Treatments administered in Carbopol® gel, once daily days 5-10.

[9] = tested on: Desulfovibrio desulfuricans API-BREWER; experiment: Minimal inhibitory concentration against anaerobic bacteria; conditions: 24 h
C. sporogenes ATCC 19404 = experiment: Antianaerobic activity, MIC by standard broth dilution method (Table II); assay type: cell-based; conditions: Clostridium sporogenes, ATCC19404, 24 h, read-out: Minimal Inhibitory Concentration (MIC)
Method in brief: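 Minimum inhibitory concentration determined by standard broth dilution against a single Clostridium sporogenes strain under anaerobic test conditions.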

candida = experiment: Intravenous administration: recovery of viable candida cells from the kidneys of infected mice; assay type: in vivo; conditions: 25 mg/ml
[10] = read-out: Minimal Inhibitory Concentration, Test 1, 24 hours at 37° C.
[11] = read-out: Minimal Inhibitory Concentration, Test 2, 24 hours at 37° C.
[12] = read-out: Minimal Inhibitory Concentration, Test 3, 24 hours at 37° C.

Cl.Clc1ccc(/C(Cn2ccnc2)=N\Nc2ccc(Cl)cc2Cl)cc1 [HC274, (E)-1-(4-chlorophenyl)-2-(1H-imidazol-1-yl)ethanone, 2,4-dichlorophenylhydrazone, hydrochloride]
Clearance of C. albicans from rat vagina (as percentage of control) (C. albicans [1]; oral, 10 mg/kg once daily for 3 days): 94.3 percentage of control
Clearance of C. albicans from rat vagina (as percentage of control) (C. albicans [1]; oral, 20 mg/kg once daily for 3 days): 91.3 percentage of control
Clearance of C. albicans from rat vagina (as percentage of control) (C. albicans [1]; topical, 1% solution in polyethylene glycol twice daily for 3 days): 95.5 percentage of control
Recovery of C.albicans (as percentage of control) (candida albicans; 5 mg/kg): 84.2 percentage of control
Recovery of C.albicans (as percentage of control) (candida albicans; 20 mg/kg): 47.8 percentage of control
MIC [2, 10]: 0.75 µg/mL
MIC [2, 11]: 1 µg/mL
MIC [2, 12]: 1 µg/mL
MIC [3, 10]: 2.5 µg/mL
MIC [3, 11]: 2.5 µg/mL
MIC [3, 12]: 5 µg/mL
MIC ([4]; Desulfovibrio desulfuricans, APISW2, 24 h, read-out: Minimal Inhibitory Concentration): 1 µg/mL
Minimal Inhibitory Concentration ([4]; Test 2): 1.0 mg/L
Minimal Inhibitory Concentration ([4]; Test 3): 1.0 mg/L
zone of inhibition at 50 µg/disc (Staphylococcus aureus): 8 mm
zone of inhibition at 50 µg/disc (Nocardia asteroides): 11 mm
zone of inhibition at 50 µg/disc (Escherichia coli): 0 mm
zone of inhibition at 50 µg/disc (Streptococcus pyrogenes): 9 mm
zone of inhibition at 50 µg/disc (pseudomonas aeruginosa): 0 mm
zone of inhibition at 50 µg/disc (Nocardia brasiliensis): 12 mm
zone of inhibition at 50 µg/disc (Proteus vulgaris): 0 mm
zone of inhibition at 50 µg/disc (Klebsiella pneumoniac): 0 mm
MIC ([5]; Test 1, 24 hours at 37° C.): 2.5 µg/mL
MIC ([5]; Test 2, 24 hours at 37° C.): 2.5 µg/mL
MIC ([5]; Test 3, 24 hours at 37° C.): 7.5 µg/mL
No. of CFU/g kidney at 48 h (C. albicans [6]; i.v.): 9 × 10^2 CFU/g kidney
No. of CFU/g kidney at 48 h (C. albicans [6]; p.o.): 3.3 × 10^3 CFU/g kidney
MIC [7, 10]: 2.5 µg/mL
MIC [7, 11]: 5 µg/mL
MIC [7, 12]: 7.5 µg/mL
Disease rating (degree of hair loss, erythema, desquamation, Max. = 100) ([8]; 40 mg/kg p.o., day 5 after infection): 100
Disease rating (degree of hair loss, erythema, desquamation, Max. = 100) ([8]; 40 mg/kg p.o., day 10 after infection): 46.9
Disease rating (degree of hair loss, erythema, desquamation, Max. = 100) ([8]; topical, 1% w/w in Carbopol gel once daily days 5-10, day 10 after infection): 35.4
Disease rating (degree of hair loss, erythema, desquamation, Max. = 100) ([8]; topical, 1% w/w in Carbopol gel, day 5 after infection): 100
MIC [9, 10]: 0.75 µg/mL
MIC [9, 11]: 1 µg/mL
MIC [9, 12]: 0.5 µg/mL
MIC (C. sporogenes ATCC 19404; Test 1): 2.5 µg/mL
MIC (C. sporogenes ATCC 19404; Test 2): 2.5 µg/mL
MIC (C. sporogenes ATCC 19404; Test 3): 7.5 µg/mL
CFU/g kidney (candida): 7.7 × 10^3 CFU/g kidney
CFU/g kidney, % of control (candida): 52 % of control
